Test results from patent US11149019B2, “Phenylpyridine derivative and pharmaceutical composition comprising the same” (Daewoong Pharmaceutical Co., Ltd., priority 2017, dated 2021).

Assays:
[1] = molecular target: T1, BTK (Homo sapiens, UniProt Q06187); assay: ADP-Glo + BTK Kinase enzyme system kit, inhibitory activity against BTK; type: biochemical; conditions: BTK enzyme 1 ng/ul, ATP 10 μM, 30° C. for 1 hour, luminescence, duplicate
T1 construct: purchased Promega Corporation
Procedure: (§1) Inhibitory activities against BTK and ITK were measured for the compounds prepared in the above Examples as follows.
The inhibitory activities against BTK were evaluated using ‘ADP-Glo™+BTK Kinase enzyme system’ kit (Promega Corporation). In a white 96-well plate, 10 ul of BTK enzyme prepared so as to have a final concentration of 1 ng/ul was mixed with 5 μl of compounds having a final concentration of […] the case of evaluating a single concentration of compound and a concentration of 1000, 300, 100, 30, 10, 3, 1, 0.3, 0.1 and 0.03 nM in the case of IC50 evaluation, and then reacted at room temperature for 15 minutes. 5 ul of substrate and 5 ul of ATP prepared so as to have a final concentration of 10 μM were added to the plate on which reactions were completed, and then allowed to react at 30° C. for 1 hour. All wells of the plate were treated with 25 ul of ADP-Glo™ reagent and allowed to react at 30° C. for 40 minutes. After that, all wells were treated with 50 ul of kinase detection buffer, and then reacted at 30° C. for 30 minutes under light shielding conditions. For the plate on which all reactions were completed, luminescence was measured and the results were calculated. Evaluation was carried out in duplicate, and negative control and positive control were calculated depending on whether or not the enzyme was added without treatment of the compound. The IC50 was calculated based on the calculated values.

[2] = molecular target: T2, ITK (Homo sapiens, UniProt Q08881); assay: ADP-Glo + ITK Kinase enzyme system kit, inhibitory activity against ITK; type: biochemical; conditions: ITK enzyme 0.4 ng/ul, ATP final concentration of 25 ul, 30° C. for 1 hour, luminescence, duplicate
T2 construct: purchased Promega Corporation
T2 sequence (Q08881 1-620): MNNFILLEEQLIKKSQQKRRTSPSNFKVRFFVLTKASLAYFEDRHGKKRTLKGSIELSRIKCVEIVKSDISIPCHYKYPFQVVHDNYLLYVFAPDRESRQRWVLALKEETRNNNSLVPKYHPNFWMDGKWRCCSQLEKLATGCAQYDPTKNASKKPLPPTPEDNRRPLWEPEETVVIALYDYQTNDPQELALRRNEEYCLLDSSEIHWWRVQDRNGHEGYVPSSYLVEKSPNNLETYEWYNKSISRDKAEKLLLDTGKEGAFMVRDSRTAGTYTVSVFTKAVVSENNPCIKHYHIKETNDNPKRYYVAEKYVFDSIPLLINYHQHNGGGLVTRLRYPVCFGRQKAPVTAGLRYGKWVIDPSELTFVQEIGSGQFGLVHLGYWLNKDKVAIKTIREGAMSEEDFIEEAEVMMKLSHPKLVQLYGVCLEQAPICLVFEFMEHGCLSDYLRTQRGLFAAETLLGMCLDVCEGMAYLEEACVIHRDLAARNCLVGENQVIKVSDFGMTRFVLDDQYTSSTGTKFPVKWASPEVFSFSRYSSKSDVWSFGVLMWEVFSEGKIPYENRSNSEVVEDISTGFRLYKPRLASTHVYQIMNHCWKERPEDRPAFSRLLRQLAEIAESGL
Procedure: as §1
The inhibitory activity against ITK was evaluated using ‘ADP-Glo™+ITK Kinase enzyme system’ kit (Promega Corporation). In a white 96-well plate, 10 ul of ITK enzyme prepared so as to have a final concentration of 0.4 ng/ul was mixed with 5 ul of compounds having a final concentration of 1 uM in the case of evaluating a single concentration of compound and a concentration of 1000, 300, 100, 30, 10, 3, 1, 0.3, 0.1 and 0.03 nM in the case of IC50 evaluation, and then reacted at room temperature for 15 minutes. To the plate on which reactions were completed, 5 ul of substrate and 5 ul of ATP prepared so as to have a final concentration of […] added and then allowed to react at 30° C. for 1 hour. All wells of the plate were treated with 25 ul of ADP-Glo™ reagent and then allowed to react at 30° C. for 40 minutes. After that, all wells were treated with 50 ul of kinase detection buffer, and then allowed to react at 30° C. for 30 minutes under light shielding conditions. For the plate on which all reactions were completed, luminescence was measured and the results were calculated. Evaluation was carried out in duplicate, and negative control and positive control were calculated depending on whether or not the enzyme was added without treatment of the compound. The IC50 was calculated based on the calculated values.

T1 sequence (Q06187 whole entry): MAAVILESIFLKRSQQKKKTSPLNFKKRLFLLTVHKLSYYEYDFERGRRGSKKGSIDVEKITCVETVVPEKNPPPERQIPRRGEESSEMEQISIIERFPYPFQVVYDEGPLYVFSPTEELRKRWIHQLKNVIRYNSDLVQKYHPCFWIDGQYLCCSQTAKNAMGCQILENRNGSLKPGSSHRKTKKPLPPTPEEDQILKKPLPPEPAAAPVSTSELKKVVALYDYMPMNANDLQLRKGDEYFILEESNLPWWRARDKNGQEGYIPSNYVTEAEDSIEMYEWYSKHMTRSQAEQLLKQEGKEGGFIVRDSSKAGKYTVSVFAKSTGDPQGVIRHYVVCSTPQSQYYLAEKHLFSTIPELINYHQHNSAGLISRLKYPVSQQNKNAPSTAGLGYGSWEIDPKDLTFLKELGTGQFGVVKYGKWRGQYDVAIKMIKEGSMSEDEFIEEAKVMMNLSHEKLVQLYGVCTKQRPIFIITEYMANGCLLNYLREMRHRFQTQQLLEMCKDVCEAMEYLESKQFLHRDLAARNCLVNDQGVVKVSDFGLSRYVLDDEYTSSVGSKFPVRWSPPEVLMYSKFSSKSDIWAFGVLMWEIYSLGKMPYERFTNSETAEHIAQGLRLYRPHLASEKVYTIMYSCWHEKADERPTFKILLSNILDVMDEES

| SMILES | IC50 [1] [nM] | IC50 [2] [nM] |
| --- | --- | --- |
| C=CC(=O)Nc1cccc(-c2cc(C)cc(Nc3ncc(C)s3)n2)c1 [Compound 26, N-(3-(4-methyl-6-((5-methylthiazol-2-yl)amino)pyridin-2-yl)phenyl)acrylamide] | 10.5 | 76.4 |
| C=CC(=O)Nc1cccc(-c2cc(CN3CC(C)OC(C)C3)cc(Nc3ncc(C)s3)n2)c1 (stereo not drawn) [Compound 34] | 2.4 | 3.1 |
| C=CC(=O)Nc1cccc(-c2cc(CN3CCOCC3)cc(Nc3ncc(C(F)(F)F)s3)n2)c1 [Compound 51] | 5.2 | 2.2 |
| C=CC(=O)Nc1cccc(-c2cc(CN3CCOCC3)cc(Nc3nnc(C)s3)n2)c1 [Compound 39, N-(3-(6-(5-methyl-1,3,4-thiadiazol-2-ylamino)-4-(morpholinomethyl)pyridin-2-yl)phenyl)acrylamide] | 252 | > 1000 |
| C=CC(=O)Nc1cccc(-c2cc(CN3CCN(CC)CC3)cc(Nc3ncc(C)s3)n2)c1 [Compound 53, N-(3-(4-((4-ethylpiperazin-1-yl)methyl)-6-(5-methylthiazol-2-yl)amino)pyridin-2-yl)phenylacrylamide] | 2.3 | 3.8 |
| C=CC(=O)Nc1cccc(-c2cc(CN3CCN(C(=O)CC)CC3)cc(Nc3ncc(C)s3)n2)c1 [Compound 61, N (3(6(5methylthiazol-2-ylamino)-4-((4-propionylpiperazin-1-yl)methyl)pyridin-2-yl)phenyl)acrylamide] | 9.5 | 13.5 |

Next, values leading:

| IC50 [1] [nM] | IC50 [2] [nM] | SMILES |
| --- | --- | --- |
| 3 | 2.1 | C=CC(=O)Nc1cccc(-c2cc(CN3CCN(C4CC4)CC3)cc(Nc3ncc(C)s3)n2)c1 [Compound 45, N-(3-(4-((4-cyclopropylpiperazin-1-yl)methyl)-6-((5-methylthiazol-2-yl)amino)pyridin-2-yl)phenyl)acrylamide] |
| 308 | 572 | C=CC(=O)Nc1cccc(-c2cc(Cc3ccccc3)cc(Nc3cc(Cc4ccc(C)cc4)[nH]n3)n2)c1 [Compound 8] |
| 634 | 91.4 | C=CC(=O)Nc1cccc(-c2cc(Cc3ccccc3)cc(Nc3cc(C4CCCC4)[nH]n3)n2)c1 [Compound 4, N-(3-(4-benzyl-6-(5-cyclopentyl-1H-pyrazol-3-ylamino)pyridin-2-yl)phenyl)acrylamide] |
| 6.7 | 9 | C=CC(=O)Nc1cccc(-c2cc(CN3CCN(C(=O)C4CC4)CC3)cc(Nc3ncc(C)s3)n2)c1 [Compound 63, N (3(4((4-(cyclopropanecarbonyl)piperazin-1-yl)methyl)-6-(5-methylthiazol-2-ylamino)pyridin-2-yl)phenyl)acrylamide] |
| 3.1 | 4.3 | C=CC(=O)Nc1cccc(-c2cc(CN3CCOCC3)cc(Nc3ncc(C)s3)n2)c1 [Compound 30, N (3(6(5-methylthiazol-2-ylamino)-4-(morpholinomethyl)pyridin-2-yl)phenyl)acrylamide] |
| 138 | 266 | C=CC(=O)Nc1cccc(-c2cccc(Nc3cc(C4CCCC4)[nH]n3)n2)c1 [Compound 13, N-(3-(6-((5-cyclopentyl-1H-pyrazol-3-yl)amino)pyridin-2-yl)phenyl)acrylamide] |
| 13.1 | 128 | C=CC(=O)Nc1cccc(-c2cc(-c3ccccc3)cc(Nc3cc(C)[nH]n3)n2)c1 [Compound 23, N-(3-(6-(5-methyl-1H-pyrazol-3-ylamino)-4-phenylpyridin-2-yl)phenyl)acrylamide] |
| 8.6 | 59.3 | C=CC(=O)Nc1cccc(-c2cc(C)cc(Nc3cc(C4CC4)[nH]n3)n2)c1 [Compound 25, N-(3-(6-((5-cyclopropyl-1H-pyrazol-3-yl)amino)-4-methylpyridin-2-yl)phenyl)acrylamide] |
| 3 | 8.2 | C=CC(=O)Nc1cccc(-c2cc(CN3CCCC3)cc(Nc3ncc(C)s3)n2)c1 [Compound 47, N-(3-(6-((5-methylthiazol-2-yl)amino)-4-(pyrrolidin-1-ylmethyl)pyridin-2-yl)phenyl)acrylamide] |
